Source: patent US20140288043A1, “PYRAZOLOPYRIDINE COMPOUNDS” (Genentech, Inc., priority 2013, published 2014)

These compounds were tested against LRRK2 (Homo sapiens, UniProt Q5S007) (assay: LRRK2 protein kinase assay ([γ-33P] ATP, peptide substrate), KI values of Table 1). Settings: LRRK2 affinity values.
Assay type: biochemical
From the text: All LRRK2 protein kinases were of human origin and were sourced from Invitrogen Corporation (Carlsbad, Calif. 92008 USA) unless otherwise indicated. The active mutant used was recombinant human, catalytic domain (amino acids 970-2527) containing a G2019S mutation, GST-tagged, expressed in insect cells (Invitrogen Cat#PV4881). The wild type used was recombinant human, catalytic domain (amino acids 970-2527) GST-tagged, expressed in insect cells (Invitrogen Cat#PV4873). The kinase dead mutant used was recombinant human, catalytic domain (amino acids 970-2527) containing a D1994A mutation, GST-tagged, expressed in insect cells (Invitrogen Cat#PM4041AE). No special measures were taken to activate any of the kinases.
All assays were carried out at room temperature (˜21° C.) and were linear with respect to time and enzyme concentration under the conditions used. Assays were performed for 180 min in a 96 well format. LRRK2 was present at a concentration of approximately 5 nM. The enzyme was diluted and assayed in 50 mM Tris-HCl pH7.5, 0.1 mM EGTA, 1 mM DTT and 10 mM MgCl2. The concentration of magnesium chloride in the assay was 10 mM. The [γ-33P] ATP (0.4 μCi/well) was used at 134 uM for G2019S mutant and at 57 μM for the wild type kinase in order to be at Km. The peptide substrate in the assay was […] at 100 μM.
The assays were initiated with Mg/ATP and stopped by the addition of 25 μl/well 50% orthophosphoric acid. Reactions were harvested onto Whatman P81 Unifilter Plates (Fisher Scientific. Loughborough, LE115RG, UK. Cat# FDU-105-020U) using a Tomtec harvester. (Tomtec Hamden, Conn. 06514. USA) Plates were counted using a Perkin Elmer Top Count NX7. (Perkin Elmer, Shelton Conn. 06484-4794 USA)
IC50 values of inhibitors were determined after carrying out assays at 10 different concentrations of each compound in duplicate.

Sequence of LRRK2 (Q5S007 whole entry G2019S, form open): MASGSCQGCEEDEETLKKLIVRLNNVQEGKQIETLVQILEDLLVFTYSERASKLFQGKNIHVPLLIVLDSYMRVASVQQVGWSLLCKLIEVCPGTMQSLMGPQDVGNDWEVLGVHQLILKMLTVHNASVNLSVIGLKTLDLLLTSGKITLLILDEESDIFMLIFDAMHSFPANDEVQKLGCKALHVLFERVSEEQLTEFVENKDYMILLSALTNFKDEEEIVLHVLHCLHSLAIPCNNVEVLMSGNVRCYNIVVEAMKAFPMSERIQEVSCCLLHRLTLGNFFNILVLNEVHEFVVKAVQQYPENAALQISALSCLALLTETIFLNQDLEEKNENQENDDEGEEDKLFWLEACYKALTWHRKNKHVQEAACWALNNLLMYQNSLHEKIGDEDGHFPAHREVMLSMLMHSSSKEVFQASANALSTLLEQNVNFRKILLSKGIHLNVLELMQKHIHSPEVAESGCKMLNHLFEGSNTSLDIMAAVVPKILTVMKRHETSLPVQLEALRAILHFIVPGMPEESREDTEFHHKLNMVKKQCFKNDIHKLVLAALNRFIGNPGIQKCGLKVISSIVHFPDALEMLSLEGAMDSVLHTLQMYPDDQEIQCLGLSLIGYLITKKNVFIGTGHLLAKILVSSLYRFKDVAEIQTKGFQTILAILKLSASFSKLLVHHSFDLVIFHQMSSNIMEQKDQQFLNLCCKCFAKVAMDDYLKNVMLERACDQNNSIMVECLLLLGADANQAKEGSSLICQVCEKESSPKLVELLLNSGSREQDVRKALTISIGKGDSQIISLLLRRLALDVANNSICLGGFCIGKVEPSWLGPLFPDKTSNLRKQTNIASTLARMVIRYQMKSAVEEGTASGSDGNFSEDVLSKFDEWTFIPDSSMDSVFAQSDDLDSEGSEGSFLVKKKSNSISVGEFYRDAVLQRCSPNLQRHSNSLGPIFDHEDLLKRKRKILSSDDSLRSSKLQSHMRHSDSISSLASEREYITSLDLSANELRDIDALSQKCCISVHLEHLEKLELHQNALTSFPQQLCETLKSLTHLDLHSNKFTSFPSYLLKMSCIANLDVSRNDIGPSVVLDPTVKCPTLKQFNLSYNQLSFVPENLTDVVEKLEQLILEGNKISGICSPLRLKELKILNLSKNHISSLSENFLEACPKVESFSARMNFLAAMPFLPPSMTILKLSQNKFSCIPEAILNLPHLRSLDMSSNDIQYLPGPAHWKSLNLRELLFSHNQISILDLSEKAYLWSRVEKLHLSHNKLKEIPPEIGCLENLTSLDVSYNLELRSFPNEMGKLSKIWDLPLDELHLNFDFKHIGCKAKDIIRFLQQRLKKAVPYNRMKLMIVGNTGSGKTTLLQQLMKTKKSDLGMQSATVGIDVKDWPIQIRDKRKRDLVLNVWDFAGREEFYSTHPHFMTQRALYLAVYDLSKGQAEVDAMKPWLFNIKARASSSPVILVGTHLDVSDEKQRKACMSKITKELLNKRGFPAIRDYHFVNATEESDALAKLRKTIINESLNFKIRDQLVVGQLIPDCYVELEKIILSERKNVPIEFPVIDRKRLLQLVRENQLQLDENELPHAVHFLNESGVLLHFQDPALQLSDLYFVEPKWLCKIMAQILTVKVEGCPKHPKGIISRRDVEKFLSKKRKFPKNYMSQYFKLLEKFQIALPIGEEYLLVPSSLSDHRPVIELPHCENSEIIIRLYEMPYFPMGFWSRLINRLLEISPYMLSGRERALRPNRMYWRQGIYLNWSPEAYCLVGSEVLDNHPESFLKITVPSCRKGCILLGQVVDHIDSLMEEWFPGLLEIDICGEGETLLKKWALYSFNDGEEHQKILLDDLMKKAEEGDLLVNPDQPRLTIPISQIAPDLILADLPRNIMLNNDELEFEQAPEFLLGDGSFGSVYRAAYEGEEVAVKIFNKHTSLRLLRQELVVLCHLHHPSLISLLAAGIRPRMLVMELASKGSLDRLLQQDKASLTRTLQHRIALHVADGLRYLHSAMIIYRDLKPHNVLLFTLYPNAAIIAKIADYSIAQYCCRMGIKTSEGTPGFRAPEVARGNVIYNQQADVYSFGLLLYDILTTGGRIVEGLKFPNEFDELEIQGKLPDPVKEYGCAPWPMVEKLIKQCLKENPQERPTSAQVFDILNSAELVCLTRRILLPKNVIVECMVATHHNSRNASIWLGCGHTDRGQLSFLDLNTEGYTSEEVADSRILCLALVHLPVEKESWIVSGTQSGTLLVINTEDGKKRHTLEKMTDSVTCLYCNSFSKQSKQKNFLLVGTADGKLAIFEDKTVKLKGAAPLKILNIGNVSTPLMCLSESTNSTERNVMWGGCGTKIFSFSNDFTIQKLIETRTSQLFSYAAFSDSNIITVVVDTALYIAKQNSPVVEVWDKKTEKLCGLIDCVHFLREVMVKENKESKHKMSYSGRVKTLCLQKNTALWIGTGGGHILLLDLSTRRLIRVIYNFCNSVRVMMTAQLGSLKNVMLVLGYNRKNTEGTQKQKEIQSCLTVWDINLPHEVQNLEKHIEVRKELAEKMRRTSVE

Ki [nM] | SMILES
5.2 | CC(C)Nc1nccc2[nH]nc(-c3cn(C)nn3)c12 [Compound 8, N-isopropyl-3-(1-methyl-1H-1,2,3-triazol-4-yl)-1H-pyrazolo[4,3-c]pyridin-4-amine]
6.8 | CS(=O)(=O)c1ccnc(-c2n[nH]c3ccnc(NC4CCOCC4)c23)c1 [Compound 69, 3-(4-(methylsulfonyl)pyridin-2-yl)-N-(tetrahydro-2H-pyran-4-yl)-1H-pyrazolo[4,3-c]pyridin-4-amine]
1 | CC(C)Nc1nccc2[nH]nc(-c3cc(-c4ccn(C)n4)ccn3)c12 [Compound 46, N-isopropyl-3-(4-(1-methyl-1H-pyrazol-3-yl)pyridin-2-yl)-1H-pyrazolo[4,3-c]pyridin-4-amine]
13.1 | CCNc1nccc2[nH]nc(-c3cn(C(C)C)nn3)c12 [Compound 9, N-ethyl-3-(1-isopropyl-1H-1,2,3-triazol-4-yl)-1H-pyrazolo[4,3-c]pyridin-4-amine]
9.4 | CCNc1nccc2[nH]nc(-c3cc(C(F)(F)F)ccn3)c12 [Compound 21, N-ethyl-3-(4-(trifluoromethyl)pyridin-2-yl)-1H-pyrazolo[4,3-c]pyridin-4-amine]
33.7 | CCNc1nccc2[nH]nc(-c3cn(C)cn3)c12 [Compound 12, N-ethyl-3-(1-methyl-1H-imidazol-4-yl)-1H-pyrazolo[4,3-c]pyridin-4-amine]
66.4 | CCNc1nccc2[nH]nc(-c3ccccn3)c12 [Compound 16, N-ethyl-3-(pyridin-2-yl)-1H-pyrazolo[4,3-c]pyridin-4-amine]
2.5 | CC(C)Nc1nccc2[nH]nc(-c3cc(Cl)ccn3)c12 [Compound 30, 3-(4-chloropyridin-2-yl)-N-isopropyl-1H-pyrazolo[4,3-c]pyridin-4-amine]
16.4 | FC1(F)CCC(Nc2nccc3[nH]nc(-c4ccncn4)c23)CC1 [Compound 38, N-(4,4-difluorocyclohexyl)-3-(pyrimidin-4-yl)-1H-pyrazolo[4,3-c]pyridin-4-amine]
2.9 | FC(F)(F)c1cc(-c2n[nH]c3ccnc(NC4CCOCC4)c23)ncn1 [Compound 22, N-(tetrahydro-2H-pyran-4-yl)-3-(6-(trifluoromethyl)pyrimidin-4-yl)-1H-pyrazolo[4,3-c]pyridin-4-amine]
0.5 | CCc1cc(-c2n[nH]c3ccnc(NC4CCOCC4)c23)nn1C [Compound 1, 3-(5-ethyl-1-methyl-1H-pyrazol-3-yl)-N-(tetrahydro-2H-pyran-4-yl)-1H-pyrazolo[4,3-c]pyridin-4-amine]
3.5 | CCc1cc(-c2n[nH]c3ccnc(NC(C)C)c23)nn1C [Compound 11, 3-(5-ethyl-1-methyl-1H-pyrazol-3-yl)-N-isopropyl-1H-pyrazolo[4,3-c]pyridin-4-amine]
23.3 | CC1CC(Nc2nccc3[nH]nc(-c4cc(C(F)(F)F)ncn4)c23)CC(C)O1 (stereo not drawn) [Compound 68, N-(2,6-dimethyltetrahydro-2H-pyran-4-yl)-3-(6-(trifluoromethyl)pyrimidin-4-yl)-1H-pyrazolo[4,3-c]pyridin-4-amine]
193 | CC(C)Nc1nccc2[nH]nc(-c3cc(C(=O)N(C)C)ncn3)c12 [Compound 62, 6-(4-(isopropylamino)-1H-pyrazolo[4,3-c]pyridin-3-yl)-N,N-dimethylpyrimidine-4-carboxamide]
3.8 | CC(C)Nc1nccc2[nH]nc(-c3cc(C4CCOCC4)ncn3)c12 [Compound 47, N-isopropyl-3-(6-(tetrahydro-2H-pyran-4-yl)pyrimidin-4-yl)-1H-pyrazolo[4,3-c]pyridin-4-amine]
2.2 | CCOc1ccnc(-c2n[nH]c3ccnc(NC4CCOCC4)c23)c1 [Compound 50, 3-(4-ethoxypyridin-2-yl)-N-(tetrahydro-2H-pyran-4-yl)-1H-pyrazolo[4,3-c]pyridin-4-amine]
2.3 | CC(C)Nc1nccc2[nH]nc(-c3cc(C#N)ccn3)c12 [Compound 31, 2-(4-(isopropylamino)-1H-pyrazolo[4,3-c]pyridin-3-yl)isonicotinonitrile]
9.7 | CC(C)Nc1nccc2[nH]nc(-c3cc(C(F)(F)F)ncn3)c12 [Compound 24, N-isopropyl-3-(6-(trifluoromethyl)pyrimidin-4-yl)-1H-pyrazolo[4,3-c]pyridin-4-amine]

Ki [nM] | SMILES
20.3 | Cc1nc(-c2n[nH]c3ccnc(NC4CCC(F)(F)CC4)c23)cc(C(F)(F)F)n1 [Compound 67, N-(4,4-difluorocyclohexyl)-3-(2-methyl-6-(trifluoromethyl)pyrimidin-4-yl)-1H-pyrazolo[4,3-c]pyridin-4-amine]
8.8 | FC(F)(F)CNc1nccc2[nH]nc(-c3ccccn3)c12 [Compound 43, 3-(pyridin-2-yl)-N-(2,2,2-trifluoroethyl)-1H-pyrazolo[4,3-c]pyridin-4-amine]
39.1 | CCOc1cc(-c2n[nH]c3cc(C)nc(NC4CCOCC4)c23)ncn1 [Compound 58, 3-(6-ethoxypyrimidin-4-yl)-6-methyl-N-(tetrahydro-2H-pyran-4-yl)-1H-pyrazolo[4,3-c]pyridin-4-amine]
3.9 | CC(C)Nc1nccc2[nH]nc(-c3cc(C4CCOCC4)ccn3)c12 [Compound 39, N-isopropyl-3-(4-(tetrahydro-2H-pyran-4-yl)pyridin-2-yl)-1H-pyrazolo[4,3-c]pyridin-4-amine]
3.9 | CC(C)Nc1nccc2[nH]nc(-c3cc(N4C[C@@H](F)[C@H](F)C4)ccn3)c12 [Compound 59, 3-(4-((3R,4R)-3,4-difluoropyrrolidin-1-yl)pyridin-2-yl)-N-isopropyl-1H-pyrazolo[4,3-c]pyridin-4-amine]
3.1 | c1ccc(-c2n[nH]c3ccnc(NC4CCOCC4)c23)nc1 [Compound 17, 3-(pyridin-2-yl)-N-(tetrahydro-2H-pyran-4-yl)-1H-pyrazolo[4,3-c]pyridin-4-amine]
6 | CC(C)Nc1nccc2[nH]nc(-c3cc(S(C)(=O)=O)ccn3)c12 [Compound 72, N-isopropyl-3-(4-(methylsulfonyl)pyridin-2-yl)-1H-pyrazolo[4,3-c]pyridin-4-amine]
8.4 | CC(C)Nc1nccc2[nH]nc(-c3cc(C4CCN(C)CC4)ccn3)c12 [Compound 40, N-isopropyl-3-(4-(1-methylpiperidin-4-yl)pyridin-2-yl)-1H-pyrazolo[4,3-c]pyridin-4-amine]
1.4 | FC1(F)CN(c2ccnc(-c3n[nH]c4ccnc(NC5CCOCC5)c34)c2)CC(F)(F)O1 [Compound 61, 3-(4-(2,2,6,6-tetrafluoro-morpholino)pyridin-2-yl)-N-(tetrahydro-2H-pyran-4-yl)-1H-pyrazolo[4,3-c]pyridin-4-amine]
37.2 | CN(C)C(=O)c1ccnc(-c2n[nH]c3ccnc(NC4CCOCC4)c23)c1 [Compound 52, N,N-dimethyl-2-(4-((tetrahydro-2H-pyran-4-yl)amino)-1H-pyrazolo[4,3-c]pyridin-3-yl)isonicotinamide]
1.6 | CC(C)Nc1nccc2[nH]nc(-c3cc(C(F)(F)F)ccn3)c12 [Compound 20, N-isopropyl-3-(4-(trifluoromethyl)pyridin-2-yl)-1H-pyrazolo[4,3-c]pyridin-4-amine]
151 | CC(C)Nc1nccc2[nH]nc(-c3nnc(C4CC4)n3C)c12 [Compound 41, 3-(5-cyclopropyl-4-methyl-4H-1,2,4-triazol-3-yl)-N-isopropyl-1H-pyrazolo[4,3-c]pyridin-4-amine]
0.7 | Cc1cc(C(F)(F)F)cc(-c2n[nH]c3ccnc(NC4CCOCC4)c23)n1 [Compound 70, 3-(6-methyl-4-(trifluoromethyl)pyridin-2-yl)-N-(tetrahydro-2H-pyran-4-yl)-1H-pyrazolo[4,3-c]pyridin-4-amine]
78.5 | CC(C)Nc1nccc2[nH]nc(-c3nccc(N4CCOCC4)n3)c12 [Compound 2, N-isopropyl-3-(4-morpholinopyrimidin-2-yl)-1H-pyrazolo[4,3-c]pyridin-4-amine]
1.7 | CC(C)n1cc(-c2n[nH]c3ccnc(NC4CCOCC4)c23)nn1 [Compound 5, 3-(1-isopropyl-1H-1,2,3-triazol-4-yl)-N-(tetrahydro-2H-pyran-4-yl)-1H-pyrazolo[4,3-c]pyridin-4-amine]
20.9 | CC(C)Nc1nccc2[nH]nc(-c3ccncn3)c12 [Compound 15, N-isopropyl-3-(pyrimidin-4-yl)-1H-pyrazolo[4,3-c]pyridin-4-amine]
22.6 | FC(F)(F)c1cc(-c2n[nH]c3ccnc(NC4CC5CCC(C4)O5)c23)ncn1 (stereo not drawn) [Compound 77, N-(8-oxabicyclo[3.2.1]octan-3-yl)-3-(6-(trifluoromethyl)pyrimidin-4-yl)-1H-pyrazolo[4,3-c]pyridin-4-amine]
46.9 | CC(C)Nc1nccc2[nH]nc(-c3cc(C(=O)N(C)C)ccn3)c12 [Compound 55, 2-(4-(isopropylamino)-1H-pyrazolo[4,3-c]pyridin-3-yl)-N,N-dimethylisonicotinamide]
